These results are taken from patent publication US4670469A, “Hydroxamic acid and pharmaceutical preparations containing the same” (VEB Arzneimittelwerk Dresden, priority 1983, dated 1987).

In general, inhibition refers to the change of the read-out against control, counted positive when it falls.

The target in assay [1] is T1, lipoxygenase from rabbit reticulocytes (Oryctolagus cuniculus, UniProt P12530).
T1 construct: The lipoxygenase from rabbit reticulocytes is obtained in electrophoretically and immunologically pure form; from tissue; host or cells: rabbit reticulocytes
T1 sequence (P12530 1-663): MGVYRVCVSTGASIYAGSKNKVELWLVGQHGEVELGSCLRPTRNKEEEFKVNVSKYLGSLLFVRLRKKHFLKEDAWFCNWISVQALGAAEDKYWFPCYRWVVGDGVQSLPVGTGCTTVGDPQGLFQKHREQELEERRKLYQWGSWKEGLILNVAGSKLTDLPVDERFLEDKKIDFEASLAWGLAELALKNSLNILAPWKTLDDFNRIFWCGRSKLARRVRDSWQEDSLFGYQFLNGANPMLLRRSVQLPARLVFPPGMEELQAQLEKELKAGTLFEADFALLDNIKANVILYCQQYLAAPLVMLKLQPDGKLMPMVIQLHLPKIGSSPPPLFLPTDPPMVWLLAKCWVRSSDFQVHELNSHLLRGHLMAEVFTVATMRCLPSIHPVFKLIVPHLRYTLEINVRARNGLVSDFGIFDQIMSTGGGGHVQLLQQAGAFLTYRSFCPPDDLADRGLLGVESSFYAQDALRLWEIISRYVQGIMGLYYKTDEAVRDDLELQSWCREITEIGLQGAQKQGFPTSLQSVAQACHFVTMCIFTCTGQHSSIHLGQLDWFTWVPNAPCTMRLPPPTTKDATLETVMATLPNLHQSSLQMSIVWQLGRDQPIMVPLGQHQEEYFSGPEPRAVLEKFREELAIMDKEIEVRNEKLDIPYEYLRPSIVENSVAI
Kind of assay: Inhibition of the activity of lipoxygenase from rabbit reticulocytes (oxygen consumption, Clark electrode). The class given is biochemical. Particulars: 25° C., pH 7.4, 0.53 mM linoleic acid, 15 min pre-incubation. As to the method:
The lipoxygenase from rabbit reticulocytes was obtained in electrophoretically and immunologically pure form according to a technique known from the literature (S. M. Rapoport et al. Methods in Enzymology 71, 430 (1981)). The determination of lipoxygenase activity follows at 25° C. through the polarographic measurement of the oxygen consumption by means of Clark Electrode in a standardized system.
Through variation of the substance concentrations, the titration curves of the inhibition and therefrom the inhibition concentrations (I-value) of the compounds can be determined.
The testing of compounds for antiasthmatic, antiallergenic, inflammation-inhibiting and antithrombotic activity on the basis on the inhibition of the lipoxygenase reaction of the arachidonic acid cascade follows in a molecular/pharmacological test system. […] The lipoxygenase from rabbit reticulocytes is obtained in electrophoretically and immunologically pure form according to the techniques described in the literature (supra). The determination of the lipoxygenase activity follows at 25° C. through the polorographic measurement of oxygen consumption by means of a Clark-electrode in the following system: 0.1M potassiumphosphate, pH 7.4, with 0.2 percent sodium cholate and 0.53 mM linoleic acid. The enzyme concentration in the measurement preparation came to 25 nM. The compounds to be tested are dissolved in methylglycol (freshly distilled in a vacuum) and pre-incubated for 15 minutes at the measuring temperature in the absence of sodium cholate and linoleic acid. […] The enzyme reaction is started by the addition of sodium cholate and linoleic acid.

Assay [2] deals with thrombocyte aggregation. Kind of assay: Arachidonic acid-induced thrombocyte aggregation in thrombocyte-rich plasma. Particulars: Homo sapiens; 0.8 mM arachidonic acid; concentration giving total restraint of aggregation. It counts as cell-based, humans. An excerpt:
Since with the new medicines the restraints of lipoxygenase has been identified as a molecular type of attack, also their influence on the thrombocyte-aggregation has been tested. The essential role of the lipoxygenase pathway for irreversibility of the thrombocyte aggregation is now known. (C. E. Dutilh et al. Prostaglandins and Medicine 6, 111 (1981)). The key role is attributed to the irreversibility of the thrombocyte aggregation in the pathogenesis of thrombotic illnesses. […] In the experiments, the thrombocyte aggregation was triggered either by means of arachidonic acid or by means of platelet activation factor (PAF-Acether).
The testing of the compounds for antithrombotic and thrombolytic activity follows in authentic cell systems of humans in vitro. Thrombocyte-rich plasma from the blood of healthy donors is obtained by centrifugation at 1,000×g. The measurement of the thrombocyte aggregation follows by means of an aggregometer based upon diffuse light scattering or light absorption of the produced cell aggregate. The thrombocyte-rich plasma is pre-incubated at 37° C. for 3 minutes with the active substance or substances; thereafter the thrombocyte aggregation is triggered through the addition of either 0.8 mM arachidonic acid or 1 μM platelet activation factor (PAF-acether). The preparations are then stirred with a velocity of 800 rpm. Indeed according to the employed active substance concentration there occurs either a strong delay or a complete inhibition of the thrombocyte aggregation.

For assay [3], the target named is T2, lipoxygenase from soybeans (Glycine max, UniProt P08170).
T2 construct: host or cells: soybeans
T2 sequence (P08170 1-839): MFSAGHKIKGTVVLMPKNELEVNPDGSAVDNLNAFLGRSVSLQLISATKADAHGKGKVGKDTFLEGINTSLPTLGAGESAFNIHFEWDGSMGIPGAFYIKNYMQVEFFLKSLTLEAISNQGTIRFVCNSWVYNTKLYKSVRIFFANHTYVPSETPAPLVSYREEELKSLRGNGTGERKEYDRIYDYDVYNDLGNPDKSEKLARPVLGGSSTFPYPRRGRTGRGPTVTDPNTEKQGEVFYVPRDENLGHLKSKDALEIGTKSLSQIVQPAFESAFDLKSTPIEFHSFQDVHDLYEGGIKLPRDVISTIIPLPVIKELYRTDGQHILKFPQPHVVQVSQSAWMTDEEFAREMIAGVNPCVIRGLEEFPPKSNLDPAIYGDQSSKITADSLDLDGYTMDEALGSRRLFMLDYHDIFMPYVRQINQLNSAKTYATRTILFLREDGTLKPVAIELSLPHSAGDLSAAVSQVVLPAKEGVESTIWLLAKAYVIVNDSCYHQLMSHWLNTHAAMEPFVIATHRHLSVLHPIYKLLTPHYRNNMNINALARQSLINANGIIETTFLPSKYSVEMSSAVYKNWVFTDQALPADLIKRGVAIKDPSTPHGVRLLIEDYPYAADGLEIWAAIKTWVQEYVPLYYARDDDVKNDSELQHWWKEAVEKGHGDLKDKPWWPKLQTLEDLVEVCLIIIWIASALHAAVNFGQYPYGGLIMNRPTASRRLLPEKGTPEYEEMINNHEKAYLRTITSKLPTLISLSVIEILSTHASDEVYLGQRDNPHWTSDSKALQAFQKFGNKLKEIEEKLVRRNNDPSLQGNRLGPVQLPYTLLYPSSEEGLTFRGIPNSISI
Put plainly: Inhibition of lipoxygenase from soybeans. The class given is biochemical. As to conditions: 0.4 mM; read-out: inhibition of soybean lipoxygenase. The method, then:
(§1) The inhibition of thrombocyte aggregation is likewise ascribed to the inhibition of lipoxygenase in the cells. It has thus been shown that the arachidonate-lipoxygenase activity of a microsome-free lysate of human thrombocyte concentrates is inhibited to the extent of 100% by means of 0.25 mM salicylhydroxamic acid. Moreover, it has been shown that also a series of further lipoxygenases are inhibited by means of the here described hydroxamic acids. The lipoxygenase from soybeans reacts the most insensitive, i.e. it is inhibited by means of 1 mM salicylhydroxamic acid at pH 7.4 to an extent of 60% and by means of 0.4 mM 2-hydroxy-1-napthylhydroxamic acid to an extent of 54%. In contrast, for the lipoxygenase from peas which come closer in their characteristics to human lipoxygenase, the following I50 -values are provided: salicyl hydroxamic acid, 5 μM, 2-hydroxy-1-napthylhydroxamic acid, 2 μM, 2(2'-napthoxy)-acethydroxamic acid, 2 μM. Moreover it has been shown that the formation lipoxygenase products of arachidonic acid in in vitro cultivated aorta endothelial cells of calves is hindered through 0.1 mM 2-hydroxy-1-napthylhydroxamic acids.

Assay [4] addresses lipoxygenase from peas. Put plainly: Inhibition of lipoxygenase from peas. It counts as biochemical. Particulars: read-out: I50. As to the method: as §1
Assay [5] deals with aorta endothelial cells of calves. Kind of assay: Formation of lipoxygenase products of arachidonic acid in cultivated aorta endothelial cells. The class given is cell-based. As to conditions: 0.1 mM. As to the method:
as §1

Regarding `O=C(NO)c1c(O)ccc2ccccc12` [2-hydroxy-1-naphthylhydroxanic acid, 2-hydroxy-1-naphthylhydroxamic acid], the results for the IC50 in assay [1] (read-out: I50) and in assay [4] were 1600 nM and 2000 nM, respectively. Also, in assay [1] (read-out: I84), the IC84 came out at 5.2 µM. The IC100 in assay [2] worked out at 7 µM. The inhibition at 400 µM in assay [3] is 54%. Further, in assay [5], the “formation of lipoxygenase products of arachidonic acid” value is reported as “hindered”.
